Source: patent US10774092B2 (SALK INSTITUTE FOR BIOLOGICAL STUDIES, priority 2014, dated 2020)

These molecules were tested against ULK1 (Homo sapiens, UniProt O75385) (assay: ULK1 inhibition assay (Table 1)). Details: * = tested as a mixture of regioisomers.
Format: biochemical

Sequence of ULK1 (O75385 whole entry, looked up): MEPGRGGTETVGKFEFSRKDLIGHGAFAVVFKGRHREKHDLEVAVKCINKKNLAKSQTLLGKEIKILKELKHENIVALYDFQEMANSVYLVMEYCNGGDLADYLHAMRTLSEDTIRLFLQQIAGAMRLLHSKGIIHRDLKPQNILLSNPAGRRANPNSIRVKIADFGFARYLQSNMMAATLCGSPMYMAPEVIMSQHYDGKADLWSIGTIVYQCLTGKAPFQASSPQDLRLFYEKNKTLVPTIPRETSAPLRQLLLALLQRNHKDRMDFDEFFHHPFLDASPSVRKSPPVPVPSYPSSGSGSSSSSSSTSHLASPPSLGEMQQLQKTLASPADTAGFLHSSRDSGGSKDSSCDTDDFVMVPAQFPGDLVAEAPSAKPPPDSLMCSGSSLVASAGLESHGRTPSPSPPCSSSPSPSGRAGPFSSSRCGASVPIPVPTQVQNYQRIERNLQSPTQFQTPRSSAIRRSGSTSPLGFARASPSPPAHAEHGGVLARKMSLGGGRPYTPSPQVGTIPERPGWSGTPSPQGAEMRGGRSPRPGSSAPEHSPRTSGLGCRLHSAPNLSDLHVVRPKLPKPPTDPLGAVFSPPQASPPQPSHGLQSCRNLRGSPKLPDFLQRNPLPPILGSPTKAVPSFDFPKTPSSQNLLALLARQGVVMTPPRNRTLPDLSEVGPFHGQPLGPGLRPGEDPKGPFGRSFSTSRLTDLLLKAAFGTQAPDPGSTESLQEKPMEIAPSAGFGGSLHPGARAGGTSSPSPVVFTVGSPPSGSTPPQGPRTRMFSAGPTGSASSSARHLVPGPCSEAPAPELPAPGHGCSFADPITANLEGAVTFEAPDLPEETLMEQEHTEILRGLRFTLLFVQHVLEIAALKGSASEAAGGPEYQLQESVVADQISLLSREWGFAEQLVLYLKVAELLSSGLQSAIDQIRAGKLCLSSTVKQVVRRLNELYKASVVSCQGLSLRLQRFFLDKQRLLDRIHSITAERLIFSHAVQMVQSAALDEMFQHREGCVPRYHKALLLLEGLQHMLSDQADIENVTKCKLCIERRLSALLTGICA

`CCONc1nc(Nc2ccc3c(c2)CCC(=O)N3)ncc1C(F)(F)F` [Example 219, 6-((4-(ethoxyamino)-5-(trifluoromethyl)pyrimidin-2-yl)amino)-3,4-dihydroquinolin-2(1H)-one] and `CC1(Nc2nc(Nc3ccc4c(c3)CCC(=O)N4)ncc2C(F)(F)F)COC1` [Example 220a, 6-((4-((3-methyloxetan-3-yl)amino)-5-(trifluoromethyl)pyrimidin-2-yl)amino)-3,4-dihydroquinolin-2(1H)-one] cannot be ordered by IC50: > 2000 nM for the first, > 2000 nM for the second.

`FC(F)(F)c1cnc(Nc2ccnnc2)nc1NC1CC1` [Example 221a, N4-cyclopropyl-N2-(pyridazin-4-yl)-5-(trifluoromethyl)pyrimidine-2,4-diamine] and `Nc1ccc(Nc2ncc(C(F)(F)F)c(NC3CC3)n2)cc1` [Example 304a, N2-(4-aminophenyl)-N4-cyclopropyl-5-(trifluoromethyl)pyrimidine-2,4-diamine] cannot be ordered by IC50: < 200 nM for the first, < 200 nM for the second.

`O=C1CCc2cc(Nc3ncnc(NC4CC4)n3)ccc2N1` [Example 225, 6-((4-(cyclopropylamino)-1,3,5-triazin-2-yl)amino)-3,4-dihydroquinolin-2(1H)-one] and `O=C1CCc2cc(Nc3ncc(C(=O)O)c(NC4CC4)n3)ccc2N1` [Example 286, 4-(cyclopropylamino)-2-((2-oxo-1,2,3,4-tetrahydroquinolin-6-yl)amino)pyrimidine-5-carboxylic Acid] cannot be ordered by IC50: > 2000 nM for the first, > 2000 nM for the second.

Compared with `COC(=O)[C@@H]1CCCN1c1nc(Nc2ccc3c(c2)CCC(=O)N3)ncc1C(F)(F)F` [Example 227, Methyl (2-((2-oxo-1,2,3,4-tetrahydroquinolin-6-yl)amino)-5-(trifluoromethyl)pyrimidin-4-yl)-L-prolinate], `C[C@@H]1COCCN1c1nc(Nc2ccc3c(c2)CCC(=O)N3)ncc1C(F)(F)F` [Example 247, (R)-6-((4-(3-methylmorpholino)-5-(trifluoromethyl)pyrimidin-2-yl)amino)-3,4-dihydroquinolin-2(1H)-one] is lower in IC50: 200 to 2000 nM for the first, < 200 nM for the second. The second is the more potent here.

Compared with `FC(F)(F)c1cnc(N2CCCC2c2cccnc2)nc1NC1CC1` (stereo not drawn) [Example 228, N-cyclopropyl-2-(2-(pyridin-3-yl)pyrrolidin-1-yl)-5-(trifluoromethyl)pyrimidin-4-amine], `FC(F)(F)c1cnc(Nc2ccc3ncccc3c2)nc1NC1CC1` [Example 264, N4-cyclopropyl-N2-(quinolin-6-yl)-5-(trifluoromethyl) pyrimidine-2,4-diamine] is lower in IC50: > 2000 nM for the first, < 200 nM for the second. The second is the more potent here.

`CNC(=O)c1ccccc1Oc1nc(Nc2cc(OC)c(OC)c(OC)c2)ncc1Cl` [Example 234a, 2-((5-chloro-2-((3,4,5-trimethoxyphenyl)amino)pyrimidin-4-yl)oxy)-N-methylbenzamide] and `CNC(=O)c1ccccc1Oc1ccnc(Nc2cc(OC)c(OC)c(OC)c2)n1` [Example 239, N-methyl-2-((2-((3,4,5-trimethoxyphenyl)amino)pyrimidin-4-yl)oxy)benzamide] cannot be ordered by IC50: > 2000 nM for the first, > 2000 nM for the second.

`O=c1[nH]c2ccc(Nc3ncc(Br)c(NC4CC4)n3)cc2[nH]1` [Example 236, 5-((5-bromo-4-(cyclopropylamino)pyrimidin-2-yl)amino)-1,3-dihydro-2H-benzo[d]imidazol-2-one] and `O=C1CCCc2cc(Nc3ncc(C(F)(F)F)c(NC4CC4)n3)ccc21` [Example 301, 6-((4-(cyclopropylamino)-5-(trifluoromethyl)pyrimidin-2-yl)amino)-3,4-dihydronaphthalen-1(2H)-one] cannot be ordered by IC50: < 200 nM for the first, < 200 nM for the second.

First: CNS(=O)(=O)c1ccccc1Nc1nc(Nc2cc(OC)c(OC)c(OC)c2)ncc1Br [Example 237, 2-((5-bromo-2-((3,4,5-trimethoxyphenyl)amino)pyrimidin-4-yl)amino)-N-methylbenzenesulfonamide]
Second: COc1cc(Nc2ncc(Br)c(Nc3ccccc3CO)n2)cc(OC)c1OC [Example 303, (2-((5-bromo-2-((3,4,5-trimethoxyphenyl)amino)pyrimidin-4-yl)amino)phenyl)methanol]
The IC50 of the first is higher: 200 to 2000 nM for the first, < 200 nM for the second.

First: Oc1ccc(CCNc2ncc(C(F)(F)F)c(NC3CC3)n2)cc1 [Example 246, 4-(2-((4-(cyclopropylamino)-5-(trifluoromethyl)pyrimidin-2-yl)amino)ethyl)phenol]
Second: FC(F)(F)c1cnc(NCc2cccc3ccccc23)nc1NC1CC1 [Example 262, N4-cyclopropyl-N2-(naphthalen-1-ylmethyl)-5-(trifluoromethyl)pyrimidine-2,4-diamine]
The IC50 of the first is lower: 200 to 2000 nM for the first, > 2000 nM for the second.

Compared with `FC1(F)Oc2ccc(Nc3ncc(C(F)(F)F)c(NC4CC4)n3)cc2O1` [Example 258, N4-cyclopropyl-N2-(2,2-difluorobenzo[d][1,3]dioxol-5-yl)-5-(trifluoromethyl)pyrimidine-2,4-diamine], `FC(F)(F)c1cnc(Nc2cnc3ccccc3c2)nc1NC1CC1` [Example 275, N4-cyclopropyl-N2-(quinolin-3-yl)-5-(trifluoromethyl) pyrimidine-2,4-diamine] is lower in IC50: > 2000 nM for the first, < 200 nM for the second.

`CCC(=O)c1ccccc1Oc1nc(Nc2cc(OC)c(OC)c(OC)c2)ncc1Br` [Example 260, 1-(2-((5-bromo-2-((3,4,5-trimethoxyphenyl)amino)pyrimidin-4-yl)oxy)phenyl)propan-1-one] and `COC(=O)Nc1ccccc1Oc1nc(Nc2cc(OC)c(OC)c(OC)c2)ncc1Br` [Example 296, Methyl (2-((5-bromo-2-((3,4,5-trimethoxyphenyl)amino)pyrimidin-4-yl)oxy)phenyl)carbamate] cannot be ordered by IC50: < 200 nM for the first, < 200 nM for the second.

`O=C1CCc2cc(Nc3ncc(C(F)(F)F)c(Nc4cc(C5CCC5)[nH]n4)n3)ccc2N1` [Example 271, 6-((4-((5-cyclobutyl-1H-pyrazol-3-yl)amino)-5-(trifluoromethyl)pyrimidin-2-yl)amino)-3,4-dihydroquinolin-2(1H)-one] and `FC(F)(F)c1cnc(Nc2ccc3nc[nH]c3c2)nc1Nc1cc(C2CCC2)[nH]n1` [Example 297, N2-(1H-benzo[d]imidazol-6-yl)-N4-(5-cyclobutyl-1H-pyrazol-3-yl)-5-(trifluoromethyl)pyrimidine-2,4-diamine] cannot be ordered by IC50: < 200 nM for the first, < 200 nM for the second.

`COc1cc(Nc2ncc(Br)c(Oc3ccccc3C(F)(F)F)n2)cc(OC)c1OC` [Example 299, 5-bromo-4-(2-(trifluoromethyl)phenoxy)-N-(3,4,5-trimethoxyphenyl)pyrimidin-2-amine] and `CC(C)(C)OC(=O)NCCCNc1nc(Nc2ccc3c(c2)CCC(=O)N3)ncc1C(F)(F)F` [Example 310, Tert-butyl (3-((2-((2-oxo-1,2,3,4-tetrahydroquinolin-6-yl)amino)-5-(trifluoromethyl)pyrimidin-4-yl)amino)propyl)carbamate] cannot be ordered by IC50: < 200 nM for the first, < 200 nM for the second.

`O=C(C1CC1)N(C(=O)C1CC1)c1ccc(Nc2ncc(C(F)(F)F)c(NC3CC3)n2)cc1` [Example 311, N-(cyclopropanecarbonyl)-N-(4-((4-(cyclopropylamino)-5-(trifluoromethyl)pyrimidin-2-yl)amino)phenyl)cyclopropanecarboxamide] and `O=C(Nc1ccc(Nc2ncc(C(F)(F)F)c(NC3CC3)n2)cc1)C1CC1` [Example 312, N-(4-((4-(cyclopropylamino)-5-(trifluoromethyl)pyrimidin-2-yl)amino)phenyl)cyclopropanecarboxamide] cannot be ordered by IC50: < 200 nM for the first, < 200 nM for the second.

The molecules below were run on endogenous ULK1 activity (assay: mobility shift of endogenous Beclin1 and Atg13 (endogenous ULK1 activity) in MEFs). Details: WT MEFs, 10 μM co-treatment, 1 hr.
Format: cell-based, mouse
Method: FIG. 7D: WT or Ulk1/Ulk2 double knockout mouse embryonic fibroblasts (MEFs) were treated with fresh media (Dulbecco's modified Eagle medium [DMEM] containing 10% FBS) containing 1-μM INK128, 1-μM AZD8055, or DMSO or with starvation media (EBSS) in the presence or absence of 10 μM compound 14. Cellular lysates were isolated after 1 hr of treatment and immunoblotted with the indicated antibodies. Asterisk denotes non-specific band.
We next examined whether compound 14 inhibits endogenous ULK1 activity. To activate endogenous ULK1, we treated MEFs with either amino acid starvation media (Earle's balanced salt solution [EBSS]) or the mTOR ATP-competitive inhibitors INK128 or AZD8055. In WT MEFs, we observed a mobility shift in endogenous Beclin1 and Atg13 in response to EBSS starvation media or the mTOR catalytic inhibitors, which was abolished in Ulk1/2-deficient MEFs (FIG. 7D). […] In certain embodiments, the mobility shifts observed in endogenous Beclin1 and Atg13 induced by mTOR inhibitors and starvation media reflect phosphorylation of endogenous Beclin1/Atg13 by endogenous ULK1/2 as they only occur in WT but not Ulk1/2-deficient MEFs.

For `CNC(=O)c1ccccc1Nc1nc(Nc2cc(OC)c(OC)c(OC)c2)ncc1Br` [compound 14, 2-(5-bromo-2-(3,4,5-trimethoxyphenylamino)pyrimidin-4-ylamino)-N-methylbenzamide], the “EBSS and mTOR-inhibitor induced mobility shift in Beclin1 and Atg13” value was “inhibited”.

These molecules were tested on PC3 prostate-cancer cell line stably expressing GFP-LC3 (assay: GFP-LC3 puncta high-throughput microscopy). Details: control siRNA cells, 1 μM mTOR catalytic inhibitor for 4 hr.
Format: cell-based, human
Method: At 48 hr after RNAi transfection, the cells were treated with 1 μM of the catalytic mTOR inhibitors AZD8055 or INK128 for 4 hr and assessed for the presence of GFP-LC3 puncta. The average number of GFPLC3 puncta and SD for each siRNA and drug treatment are shown. SRC, c-Src; c-Src kinase, CSK.
(§1) To test the ability of compound 14 to block autophagy and cell survival, initial studies were performed in A549 lung cancer cells, which are highly sensitive to mTOR inhibition. […] Next, we genetically assessed the requirement for ULK1 versus other kinases inhibited by compound 14 to induce autophagy after pharmacological mTOR inhibition. A robust high-throughput microscopy method for quantifying GFP-LC3 puncta was established using a PC3 prostate-cancer cell line stably expressing a GFP-LC3 construct. Using this assay, we performed a focused RNAi analysis of the top 20 kinases identified in the DiscovRx screen as best binding to compound 14. […] Strikingly, of the 18 kinases tested, only one kinase siRNA, ULK1, nearly fully abolished the LC3 puncta induced by the mTOR inhibitors (FIG. 9D).

`COc1ccc(-c2ccc3c(N4CCOC[C@@H]4C)nc(N4CCOC[C@@H]4C)nc3n2)cc1CO` [AZD8055, (5-(2,4-bis((S)-3-methylmorpholino)pyrido[2,3-d]pyrimidin-7-yl)-2-methoxyphenyl)methanol, reference compound] and `CC(C)n1nc(-c2ccc3oc(N)nc3c2)c2c(N)ncnc21` [INK128, 3-(2-amino-5-benzoxazolyl)-1-(1-methylethyl)-1H-pyrazolo[3,4-d]pyrimidin-4-amine] are the same in “induction in GFP-LC3 puncta formation” value: 2 fold for the first, 2 fold for the second.

These molecules were tested on A549 lung cancer cells (assay: Cyto-ID autophagy dye detection of autophagic vacuoles). Details: 5-μM 6965 with AZD8055.
Format: cell-based
Method: FIG. 9E is an immunoflourescence imaging of A549 cells treated in the presence or absence of 5 μM compound 14 for 2 hr followed by 4 μM of the mTOR catalytic inhibitor AZD8055 for 24 hr. Autophagic vacuoles were detected using the Cyto-ID autophagy detection kit and are visualized in green, while cell nuclei were counterstained by DAPI and are visualized in blue.
as §1

With `CNC(=O)c1ccccc1Nc1nc(Nc2cc(OC)c(OC)c(OC)c2)ncc1Br` [compound 14, 2-(5-bromo-2-(3,4,5-trimethoxyphenylamino)pyrimidin-4-ylamino)-N-methylbenzamide] the “effect on AZD8055-induced autophagy (Cyto-ID dye accumulation)” value was “strongly suppressed”.

Same assay, conditions: AZD8055 alone

With `COc1ccc(-c2ccc3c(N4CCOC[C@@H]4C)nc(N4CCOC[C@@H]4C)nc3n2)cc1CO` [AZD8055, (5-(2,4-bis((S)-3-methylmorpholino)pyrido[2,3-d]pyrimidin-7-yl)-2-methoxyphenyl)methanol, reference compound] the “autophagy induction (Cyto-ID dye accumulation)” value was “induced robust autophagy”.
